Values joined by “and” are separate entries in the source; they are usually repeats but may differ in a detail not shown here. Equal values may be shown once. Read-outs that look alike come from different tables or passages of the source.
Columns and labels:
[1] = test system: KB (human oral squamous carcinoma); test: MTT assay, KB; assay type: cell-based
[2] = test system: MCF-7 (human breast carcinoma); test: MTT assay, MCF-7; assay type: cell-based
Procedure, shortened: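 Cells cultured at 37 °C in serum-supplemented medium (10% FBS, 1% L-glutamine, 1% pen/strep): HeLa in DMEM, MCF-7 and A-549 in RPMI 1640, HDF in fibroblast basal medium. Compound effects were then assessed by MTT assay.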

[3] = test system: HPOC (human ovarian carcinoma); details: ref 47; read-out: anticancer IC50 (HPOC); cited from earlier work
[4] = test system: SW-707 (human colon carcinoma); details: ref 49, cited from earlier work
[5] = CUPRAC antioxidant assay; details: calculated from Trolox standard curve
Procedure, shortened: (§1)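 The CUPRAC reagent was made from 7.5 mM neocuproine, 10 mM CuCl2 and ammonium acetate buffer pH 7.0; the DPPH reagent was a 0.2 mM solution. Both were read spectrophotometrically in plates. Activity is given as % inhibition and as Trolox equivalents from standard curves.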

[6] = test system: SKOV-3 (human ovarian carcinoma); test: MTT assay, SKOV-3; assay type: cell-based
[7] = test system: T-47D (human breast carcinoma); details: cited from earlier work; for IC50: read-out: anticancer IC50 (T-47D)
[8] = DPPH antioxidant assay; details: calculated from Trolox standard curve
Procedure, shortened: as §1

[9] = test system: SGC7901 (human gastric carcinoma); details: ref 48, cited from earlier work
[10] = test system: CCRF-CEM, CEM (human T lymphoblastic leukemia); details: cited from earlier work
[11] = test system: TE-671 (human rhabdomyosarcoma–medulloblastoma); details: ref 47; read-out: anticancer IC50 (TE-671); cited from earlier work
[12] = test system: HPGBM (human glioblastoma multiforme); details: ref 47; read-out: anticancer IC50 (HPGBM); cited from earlier work
[13] = test system: SK-N-AS (human neuroblastoma); details: ref 47; read-out: anticancer IC50 (SK-N-AS); cited from earlier work
[14] = test system: C-6; details: ref 47; read-out: anticancer IC50 (C-6); cited from earlier work

With `C=C(C)[C@@H]1CC[C@]2(CO)CC[C@]3(C)[C@H](CC[C@@H]4[C@@]5(C)CC[C@H](O)C(C)(C)[C@@H]5CC[C@]43C)[C@@H]12` [5a, betulin] the IC50 ([1]; Homo sapiens, MTT assay, KB) was 19.7 µM, the “Selectivity index (SI), KB” value ([1]; IC50 HDF / IC50 KB) was 0.80 and the IC50 ([2]; Homo sapiens, MCF7, MTT assay, MCF-7, read-out: IC50 (±SD), MCF-7) was 18.1 µM. The “Selectivity index (SI), MCF-7” value ([2]; IC50 HDF / IC50 MCF-7) was 0.87, the IC50 [3] was 2.8 µM and the “anticancer IC50 (SW-707)” value [4] was 22.9 µg/mL. For the same molecule, the IC50 ([4]; read-out: anticancer IC50 (SW-707)) was 51.7 µM, the “Trolox Equivalent, CUPRAC Assay” value [5] was 0.299 mg/mL and 0.299 ± 0.00663 mg/mL and the IC50 ([6]; Homo sapiens, SK-OV-3, MTT assay, SKOV-3, read-out: IC50 (±SD), SKOV-3) was 6.95 µM. The “Selectivity index (SI), SKOV-3” value ([6]; IC50 HDF / IC50 SKOV-3) was 2.27, the IC50 ([7]; ref 47) was 5.2 µM and the “anticancer IC50 (T-47D)” value ([7]; ref 49) was 32.4 µg/mL. The IC50 ([7]; ref 49) was 73.2 µM, the “Trolox Equivalent, DPPH Assay” value [8] was 0.01077 mg/mL and 0.01077 ± 0.000446 mg/mL and the “anticancer IC50 (SGC7901)” value [9] was 13 µg/mL. The IC50 ([9]; read-out: anticancer IC50 (SGC7901)) was 29.4 µM, the IC50 ([10]; ref 26, read-out: anticancer IC50 (CCRF-CEM, CEM)) was 250 µM and the “anticancer IC50 (CCRF/CEM)” value ([10]; ref 49) was 10.9 µg/mL. For the same molecule, the IC50 ([10]; ref 49, read-out: anticancer IC50 (CCRF/CEM)) was 24.6 µM, the IC50 [11] was 10.3 µM and the IC50 [12] was 3.4 µM. The IC50 [13] was 2.5 µM and the IC50 [14] was 5.9 µM.

From PMC12196235, “Enhancing the Pharmacological Properties of Triterpenes Through Acetylation: An Anticancer and Antioxidant Perspective” (Molecules, 2025)
